Assay results reported in patent US20240398754A1, “VERATRALDEHYDE, PIPERONYL ALCOHOL, ETHYL 2-AMINO BENZOATE, ISOAMYL CINNAMATE, OR DIETHYL MALONATE AS FOOD ADDITIVES WITH ANTI-INFLAMMATORY PROPERTIES” (NATIONAL UNIVERSITY OF IRELAND, MAYNOOTH, priority 2021, published 2024).

Experiments:
Human THP1 cells = assay: ELISA analysis of IL-10 and TNF expression in media from LPS-stimulated THP1 cells (cytokine release platform); type: cell-based; conditions: FIG. 11A-F, compounds at 1 mM, 100 μM and 10 μM for 2 hrs, vs DMSO vehicle
Method: FIG. 10: ELISA analysis of IL-10 and TNF expression in media from cells pretreated with DMSO (vehicle) or (A/B) piperonyl acetate and (C/D) piperonyl isobutyrate for 2 hrs and stimulated with LPS for 24 hrs. Human THP1 cells treated with compounds at (1 mM, 100 μM and 10 μM) and LPS […]. All data are presented as the mean±SEM of three or four independent experiments and were subjected to paired Student's t test.
FIG. 11: ELISA analysis of IL-10 and TNF expression in media from cells pretreated with DMSO (vehicle) or (A/B) vanillin, (C/D) ethyl vanillin and (E/F) divanillin for 2 hrs and stimulated with LPS for 24 hrs. Human THP1 cells treated with compounds at (1 mM, 100 μM and 10 μM) and LPS […]. (G) DH82 cells were treated with veratric acid (1 mM, 500 uM, 250 uM, 125 uM, 60 uM, 30 uM) for 2 hrs and stimulated with LPS for 24 hrs. All data are presented as the mean±SEM of three or four independent experiments and were subjected to paired Student's t test.
THP-1 cells were cultured in RPMI supplemented with 10% (v/v) heat inactivated FBS, penicillin G (100 μg/ml) and streptomycin (100 μg/ml) in a 37° C. humidified chamber under a 5% CO2 atmosphere. Cell morphology and confluence, including media acidification colour change were monitored daily. Twice a week, cells were passaged by removal from flask and centrifugation at 400 G. Cells were cultured for a maximum of 25 passages in order to avoid excessive genetic drift. Cells were seeded at 1×10^6/ml.
Cell supernatant or serum samples were collected and stored at −80° C. prior to analysis. 96-well NUNC “Maxisorb” plates were coated with 100 μl capture antibody diluted to a working concentration in PBS. […] The optical density (OD) value of each well was measured at 450 nm with a correction at 590 nm. A ELx800™ microplate reader with Gen5 Data Analysis Software was used to carry out the reading. The sample concentrations were determined by interpolating the sample absorbance from the known concentrations of the standard curve. Standards were assayed in duplicate while samples were analysed in triplicate. […]

COL2A1 = assay: In vitro arthritis model: DH82 supernatant transferred to canine chondrocytes, COL2A1 mRNA by RT-PCR; type: cell-based; conditions: FIG. 14(A); DH82 macrophage cells treated with 500 μM for 2 hrs and LPS (100 μg/ml) 3 hours; media transferred to canine chondrocytes (CNC) 24 hours; compared to LPS alone
Method: FIG. 13: (1) DH82 cells are plated and stimulated with the compound, followed by LPS. (2) After 24 hours, TNF has been produced by the cells and (3) This liquid supernatant is removed from the cells and reserved. (4) Chondrocytes are plated and (5) the reserved liquid supernatant containing TNF and other inflammatory cytokines from the DH82 cells is added on top of these cells, thus exposing the cartilage cells to an inflammatory environment, simulating an inflammatory joint. (6) After 24 hours gene expression of COL2A1 is measured.
FIG. 14: (A) DH82 cells were stimulated with DMSO (vehicle) or veratraldehyde (500 μM) for 2 hrs and stimulated with LPS (100 μg/ml) for 3 hours. […] COL2A1 mRNA expression was measured by RT-PCR. (B) Quantitative RT-PCR of mRNA expression of COL2A1 in Canine chondrocytes (CNC) pretreated with DMSO (vehicle), Methyl Isoeugenol, NaOH, Vertic Acid, Folic Acid, Piperonyl Alcohol, Veratraldehyde (500 μM) for 24 hrs. […]
Canine chondrocyte (CNC) cells were cultured in complete CNC media in a 37° C. humidified chamber under a 5% CO2 atmosphere. Cell morphology and confluence were monitored daily. […]
Enriched inflammatory cell supernatant from DH82 cells was prepared by first stimulating seeded DH82 cells with compound, followed by stimulation with LPS for 3 hours. […] After 24 hours, mRNA was harvested from CNC as described above and levels of COL2A1 were assessed. […]

DH82 cells = assay: ELISA of media from LPS-stimulated DH82 cells; type: cell-based, canine; conditions: FIG. 11G, 1 mM, 500 uM, 250 uM, 125 uM, 60 uM, 30 uM for 2 hrs, then LPS for 24 hrs
Method: FIG. 3: ELISA analysis of TNF expression in media from cells pretreated with DMSO (vehicle) or Veratraldehyde for 2 hrs and stimulated with LPS for 24 hrs. (A) human THP1 cells treated with Veratraldehyde (200 μM, 100 μM and 50 μM) and LPS (1 mg/ml). (B) human peripheral blood mononuclear cell (PBMC) treated with Veratraldehyde (100 μM) and LPS (100 μg/ml). (C) murine bone-marrow-derived macrophages (BMDMs) isolated from C57BL/6 WT mice treated with Veratraldehyde (100 μM) and LPS (100 μg/ml). (D) Quantitative RT-PCR of mRNA expression of Tnf in PBMCs pretreated with DMSO (vehicle) or veratraldehyde (100 μM) for 2 hrs and stimulated with LPS (100 μg/ml) for 3 hrs. (E and G) TNF was measured from canine macrophage-like cells (DH82) treated with veratraldehyde (1 mM, 500 uM, 200 uM, 100 uM, 50 uM, 10 uM) and LPS for 24 hours by ELISA. (F) Quantitative RT-PCR of mRNA expression of Tnf in DH82 cells pretreated with DMSO (vehicle) or veratraldehyde (500 μM) for 2 hrs and stimulated with LPS (100 μg/ml) for 1.5 and 3 hrs. […] COL2A1 mRNA expression was measured by RT-PCR. […]
DH82 cells were cultured in EMEM supplemented with 10% (v/v) heat inactivated FBS, penicillin G (100 μg/ml) and streptomycin (100 μg/ml) in a 37° C. humidified chamber under a 5% CO2 atmosphere. Cell morphology and confluence were monitored daily. […]

Row | Compound | anti-inflammatory effect (ELISA analysis of IL-10 and TNF expression in media) (Human THP1 cells) | further results
1 | COc1cc(C=O)cc(-c2cc(C=O)cc(OC)c2O)c1O [divanillin] | does not show an anti-inflammatory effect | –
2 | CCOc1cc(C=O)ccc1O [ethyl vanillin] | does not show an anti-inflammatory effect | –
3 | COc1cc(C=O)ccc1O [vanillin] | does not show an anti-inflammatory effect | –
4 | COc1ccc(C=O)cc1OC [veratraldehyde, 3,4-dimethoxybenzaldehyde] | – | levels of COL2A1 (mRNA expression) in chondrocyte cells (COL2A1): significant restoration
5 | COc1ccc(C(=O)O)cc1OC [veratric acid] | – | anti-inflammatory effect (ELISA) (DH82 cells): does not show an anti-inflammatory effect
